The target in assay [1] is T1, human CB2 receptor (Homo sapiens (Human), UniProt P34972). The assay can be described thus: Membrane competition binding assay with [3H]-CP 55,940, CHO-CB2 membranes. An excerpt:
(§1) The cDNA clones for human HA-tagged CB1 and CB2 receptors were obtained from the Missouri S&T cDNA Resource Center (www.cdna.org) in cloning vector pcDNA3.1+. The vector containing the human CB2 receptor was transfected directly into CHO-KI cells obtained from ATCC. The HA-tagged human CB1 receptor sequence was subcloned into the pef4-V5-HisA vector with Kpn1 and Pme1 restriction enzymes and subsequently transfected into CHO-K1 cells. Cells were clonally isolated by limited dilution and screened by immunocytochemistry for expression of the HA tag.
(§2) Cells were maintained in DMEM/F12 media supplemented with 10% fetal bovine serum (FBS), 100 units/ml penicillin and 100 μg/ml streptomycin and 2 mM L-glutamine. Transfected cell lines were maintained with additional 150 ug/ml zeocin for pEF HA-CB1 transfected cells and 500 ug/ml G-418 for pcDNA HA-CB2 transfected cells (all reagents obtained from Invitrogen).
Cells were grown to confluence and harvested in ice cold phosphate buffered saline with 5 mM EDTA. Cells were spun at 200×g for 10 min and frozen at −80° C. until required. Cell pellets were thawed with cold 0.32 M sucrose and homogenised with a glass homogeniser. The homogenate was spun at 1000×g for 10 min at 4° C. and the supernatant spun in a Sorvall ultracentrifuge for 30 min at 100,000×g. The pellet was then washed in ice cold water and re-spun twice more. The final pellet was resuspended in 50 mM Tris pH 7.5, 0.5 mM EDTA. Protein concentration was determined using the Dc protein assay kit (BioRad, Hercules, Calif., USA).
Membranes (5-10 μg) were incubated with radioligand and a range of concentrations of test compounds in binding buffer (50 mM Tris pH 7.4, 5 mM MgCl2, 1 mM EDTA) with 0.5% (w/v) bovine serum albumin (BSA) (ICP Bio, New Zealand), at 30° C. for 60 min. Stock solutions of putative cannabinoid ligands were prepared in dimethyl sulfoxide to a concentration of 10 mM. Six different final concentrations of compounds were used ranging from 50 μM to 0.1 nM. […] Assays were terminated by addition of 2 ml ice cold binding buffer and filtration through GF/C filters (Whatman) pre-soaked in cold binding buffer, followed by two washes in the same buffer.
Radioactivity was determined by incubation of filters with Irgasafe scintillation fluid (PerkinElmer) and scintillation counting in a Wallac Trilux using Microbeta Trilux software. Data was analysed using the Prism 4.02 programme (GraphPad Software, San Deigo, Calif., USA).
All data was analyzed using Prism 4.02. For binding data the Ki was determined from IC50 values derived from competition binding data fitted with one site competition non-linear regression analysis by Prism 4.02 using the Kd values reported above.

In assay [2] the target is T1, human CB2 receptor. The assay can be described thus: cell-based. To be noted: for Emax: CHO, read-out: cAMP Assay CB2 Receptor Emax; for IC50: read-out: cAMP Assay CB2 Receptor IC50.
Excerpt: as §1, §2
(§3) Cells were seeded at a density of 10,000 cells per well in poly-L-lysine treated 96-well culture plates (BD Biosciences). The following day wells were incubated with 40 μl DMEM/F12 containing 0.5% (w/v) BSA and 0.5 mM 3-isobutyl-1-methylxanthine (Sigma-Aldrich) for 30 minutes prior to 15 min stimulation with 50 μM forskolin (Tocris Cookson) and varying concentrations of indicated compounds at 37° C., 5% CO2. Assays were stopped by removal of media and addition of 100% ice cold ethanol. Plates were then frozen for a minimum of two hours before complete evaporation of ethanol. The well contents were then reconstituted in 50 μl cAMP assay buffer (20 mM HEPES pH 7.5 and 5 mM EDTA). Half of the reconstituted sample was transferred to round bottom 96-well plates (Greiner Bio-One GmbH) with 50 μl 0.01% w/v PKA (cAMP dependent protein kinase (Sigma-Aldrich) in 1 mM Na citrate pH 6.5 with 2 mM dithiothreitol) and 25 μl [^3H]-cAMP (at 22 nM in cAMP assay buffer) (GE Healthcare, Life Sciences). This was allowed to equilibrate for 3-18 hours. Following this a charcoal slurry (5% (w/v) activated charcoal and 0.2% (w/v) BSA in cAMP assay buffer) was added to the samples and the plates centrifuged at 3000×g, 4° C. for 5 min. Radioactive counts within the supernatant were then determined as described for competition binding assays.
(§4) pIC50 values were determined from cAMP assays by fitting a sigmoidal concentration response curve using Prism 4.02.

Another assay concerns the target human CB1 receptor (Homo sapiens (Human), UniProt P21554). Nature of the assay: cell-based. To be noted: whole cells expressing CB1, 50 μM forskolin; read-out: cAMP Assay CB1 Receptor IC50.
Excerpt: as §1, §2, §3, §4

A value given as a limit tells only on which side of the number the result lay.

What is called Ki is the dissociation constant of the complex between target and ligand, obtained from inhibition or displacement. Low readings indicate higher affinity, high ones lower affinity. As usually defined, the Emax is the size of the effect at its maximum, as opposed to the concentration needed. A word on the IC50: it is the midpoint of a concentration-inhibition curve.

Sequence of human CB1 receptor (P21554 whole entry): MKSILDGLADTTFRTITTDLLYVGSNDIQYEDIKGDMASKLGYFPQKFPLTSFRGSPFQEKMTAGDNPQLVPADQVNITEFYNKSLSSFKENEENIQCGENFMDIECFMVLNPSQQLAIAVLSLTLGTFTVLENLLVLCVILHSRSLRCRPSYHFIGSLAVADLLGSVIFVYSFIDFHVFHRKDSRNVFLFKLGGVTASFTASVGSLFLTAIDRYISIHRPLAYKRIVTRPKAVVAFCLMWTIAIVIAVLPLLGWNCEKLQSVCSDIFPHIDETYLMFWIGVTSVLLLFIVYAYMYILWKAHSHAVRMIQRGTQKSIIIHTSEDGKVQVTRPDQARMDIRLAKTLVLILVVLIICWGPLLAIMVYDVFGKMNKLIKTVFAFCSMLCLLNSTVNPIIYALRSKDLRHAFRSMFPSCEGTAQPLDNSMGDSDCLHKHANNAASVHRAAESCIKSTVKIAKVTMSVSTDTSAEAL

On to `CCCCCCC(C)(C)c1cc(OC)c(C2=C[C@H]3CC[C@]2(CO)C3(C)C)c(OC)c1` [HU-910, (1S,4R)-(2-(2,6-dimethoxy-4-(2-methyloctan-2-yl)phenyl)-7,7-dimethylbicyclo[2.2.1]hept-2-en-1-yl)methanol], for which the affinity on human CB2 receptor [1] corresponds to a Ki of 0.006 µM. Besides, at human CB2 receptor [2], the maximal response (Emax) is 105 ± 12% and the IC50 stood at 0.162 µM. For the same compound, the IC50 on human CB1 receptor was greater than 50 µM.
The like results for `CCCCCCC(C)(C)c1cc(OC)c(C2=C[C@H]3CC[C@]2(C(=O)O)C3(C)C)c(OC)c1` [HU-914, (1S,4R)-2-(2,6-dimethoxy-4-(2-methyloctan-2-yl)phenyl)-7,7-dimethylbicyclo[2.2.1]hept-2-ene-1-carboxylic acid] were, in that order, 1.5 µM, 82 ± 7%, 2.29 µM and greater than 50 µM.

For the origin of these results see patent US9365534B2, “Arylated camphenes, processes for their preparation and uses thereof” (Yissum Research Development Company of the Hebrew …, priority 2009, dated 2016).
